Reference: patent US11655260B2, “Heterocyclic compounds as arginase inhibitors” (Guangdong Newopp Biopharmaceuticals Co., Ltd., priority 2017, dated 2023)
Where a name gives a salt, the structure may show the parent alone.

Molecular target: T1, recombinant human arginase 1 (Homo sapiens, UniProt P05089)
T1 sequence (P05089 1-322): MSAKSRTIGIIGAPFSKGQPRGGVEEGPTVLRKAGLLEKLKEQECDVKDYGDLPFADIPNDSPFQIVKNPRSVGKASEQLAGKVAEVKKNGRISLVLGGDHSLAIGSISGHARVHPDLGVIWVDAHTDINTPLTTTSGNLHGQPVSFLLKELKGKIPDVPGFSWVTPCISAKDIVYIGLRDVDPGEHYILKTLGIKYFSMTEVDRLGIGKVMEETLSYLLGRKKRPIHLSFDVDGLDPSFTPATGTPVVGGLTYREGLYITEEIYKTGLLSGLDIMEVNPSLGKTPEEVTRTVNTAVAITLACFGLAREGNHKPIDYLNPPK
Test: Arginase inhibitory activity test (urea detection), arginase 1
Assay type: biochemical
Details: recombinant human arginase 1, L-arginine substrate, 37° C. for 120 min, urea measurement; read-out: Arg 1 enzymatic potency
From the text: Arginase Inhibitory Activity Test
Urea was used as the standard.

Compared with `CNS(=O)(=O)N1C[C@H](CCCB(O)O)[C@](N)(C(=O)O)C1` (racemic) [Example 2, (rac)trans-3-amino-4-(3-boronopropyl)-1-(N-methylsulfamoyl)pyrrolidine-3-carboxylic acid, (1:1) 2,2,2-trifluoroacetic Acid Salt], `C[C@H](N)CNS(=O)(=O)N1C[C@H](CCCB(O)O)[C@](N)(C(=O)O)C1` (racemic) [Example 18, (rac)trans-3-amino-1-(N—((S)-2-aminopropyl)sulfamoyl)-4-(3-boronopropyl)pyrrolidine-3-carboxylic Acid (Diastereomers), 2,2,2-trifluoroacetic Acid Salt (1:2)] is lower in IC50: 1000 to 101000 nM for the first, 100 to 1000 nM for the second. The second is the more potent here.

First: CCOC(=O)[C@]1(N)CN(S(=O)(=O)NCCN)C[C@@H]1CCCB(O)O (racemic) [Example 14, (rac)(3-(trans-4-amino-1-(N-(2-aminoethyl)sulfamoyl)-4-(ethoxycarbonyl)pyrrolidin-3-yl)propyl)boronic Acid, (1:2) 2,2,2-trifluoroacetic Acid Salt]
Second: NC(=O)CNS(=O)(=O)N1C[C@H](CCCB(O)O)[C@](N)(C(=O)O)C1 (racemic) [Example 7, (rac)trans-3-amino-1-(N-(2-amino-2-oxoethyl)sulfamoyl)-4-(3-boronopropyl)pyrrolidine-3-carboxylic Acid, (1:1) 2,2,2-trifluoroacetic Acid Salt]
The IC50 of the first is lower: 100 to 1000 nM for the first, 1000 to 101000 nM for the second.

First: N[C@@H]1CCCCC1NS(=O)(=O)N1C[C@H](CCCB(O)O)[C@](N)(C(=O)O)C1 (mixture of isomers) [Example 20, (rac)trans-3-amino-1-(N-((rac)cis-2-aminocyclohexyl)sulfamoyl)-4-(3-boronopropyl)pyrrolidine-3-carboxylic Acid (Diastereomers), 2,2,2-trifluoroacetic Acid Salt (1:2)]
Second: CC(C)C(NS(=O)(=O)N1CC(CCCB(O)O)C(N)(C(=O)O)C1)C(=O)O (racemic) [Example 11, (rac)trans-3-amino-4-(3-boronopropyl)-1-(N—((S)-1-carboxy-2-methylpropyl)sulfamoyl)pyrrolidine-3-carboxylic Acid (Diastereomer), (1:1) 2,2,2-trifluoroacetic Acid Salt]
The IC50 of the first is higher: > 101000 nM for the first, 1000 to 101000 nM for the second. The second is the more potent here.
